Experimental data: patent US8895608B2, “Sulfonamide anti-viral compounds” (Kineta, Inc., priority 2010, dated 2014)
Entries after “also recorded” stand apart in the source; their conditions may differ.

How the values were obtained:
Huh7 cells = experiment: MTS assay to determine cytotoxicity; format: cell-based, human; conditions: 24 hours, up to 50 μM
Protocol: MTS assay to determine cytotoxicity. Cultured human Huh7 cells are treated with increasing amounts of KIN600 or equivalent amounts of DMSO diluted in media for 24 hours to see their effect on cell viability.
Cell Titer One (Promega) is the one step reagent used according to manufacturer's protocol, and cells are incubated for three hours in the presence of reagent before O.D. reading is done. Compounds were diluted to final concentrations of 0, 5, 10, 20, and 50 μM in media containing 0.5% DMSO. Negative control wells contain no compound and positive control for cytotoxicity is examined using an EMCV infection which causes 100% cytopathic effect. Each compound concentration and control is done in triplicate wells to generate error bars.
Final KIN600 concentrations of 50 μM, 20 μM, 10 μM, and 5 μM were made in 0.5% DMSO containing media and were added to Huh7 cells to examine cytotoxicity in a MTS assay. Cells were treated for 24 hours with varying concentrations of compound and were analyzed for cell viability compared to negative control samples that were not treated with compound but grown in DMSO containing media. The cellular metabolism (O.D.) was in the range of 1.75 to below 2.0 at compound concentrations of 50 μM, 20 μM, 10 μM, 5 μM, and 0.

HCV2a virus = experiment: HCV IF antiviral assay; format: cell-based, Hepatitis C virus
[1] = tested on: Murine Encephalomyocarditis virus (EMCV); experiment: EMCV antiviral assay (cell viability by MTS after infection); conditions: Huh7 cells, 250 pfu EMCV, 18 hours

SMILES: COC(=O)c1sccc1S(=O)(=O)Nc1ccc2c(c1)OCO2 [KIN600]
- cytotoxicity (result in words) (Huh7 cells): no significant cytotoxicity; also recorded: no significant toxicity
- HCV infected foci (number of FFU/well) (HCV2a virus; Huh7 cells pre-treated 24 hours at 10 μM, HCV2a MOI 0.1-0.5): 12±4 FFU/well
- antiviral activity against HCV (result in words) (HCV2a virus; Huh7 cells, HCV2a): showed antiviral activity; also recorded: has antiviral properties
- Cell viability post-infection ([1]; 5 μL): ~0.7
- Cell viability post-infection ([1]; 10 μL): ~1.4
